Experimental data from patent US7977388B2, “Quinone derivative 2,3-dimethoxy-5-methyl-6-(10-hydroxydecyl)-1,4-benzoquinone for the treatment of muscular dystrophies” (Santhera Pharmaceuticals (Schweiz) AG, priority 2005, dated 2011).

System: dystrophin-deficient mdx mouse
Assay: Voluntary daily running performance of idebenone-treated mdx mice
Assay type: in vivo
Description: The effect of idebenone on the running performance was tested in the dystrophin-deficient mdx mouse, a validated animal model for DMD. Starting at day 21 of age, mdx mice were treated with idebenone. Their daily running performance was compared to mdx mice treated with vehicle only and to non-treated wild-type mice. For this, idebenone was dissolved in 0.5% w/v carboxymethylcellulose (CMC) to a final concentration of 20 mg/ml. Idebenone (20 mg/ml in 0.5% CMC) was applied once a day by gavage feeding. The final dose of idebenone at all time points was 200 mg/kg body weight. Control mice received the same amount of vehicle only. […] Idebenone treated mdx mice performed clearly better compared to the vehicle-treated mdx mice from the start of the analysis.

COC1=C(OC)C(=O)C(CCCCCCCCCCO)=C(C)C1=O [idebenone, 2,3-dimethoxy-5-methyl-6-(10-hydroxydecyl)-1,4-benzoquinone]
Total daily running distance (mdx mice treated daily with idebenone vs vehicle-treated mdx and wild-type mice, distance in meters): clearly increased
Daily running performance (mdx mice, 200 mg/kg body weight once a day by gavage in 0.5% CMC from day 21 of age, analysed 29-84 days of age, vs vehicle-treated mdx mice): prominent increase
